Consider 91 molecules from a melting point compilation (Tetko et al.; mined from patent text by program, amines drawn as free bases though some values may be those of a salt).

Each structure is given as a SMILES string.

The term melting point denotes the temperature of the solid-liquid transition. As for `CC(=O)Oc1cc(C)ccc1C1CCN(CCCCNC(=O)c2ccc(NC(=O)c3ccc(Cl)cc3)cc2)CC1`, the melting point is 210 °C.
The value for `CCCCCCCCNC(=N)NC#N` was 69 to 74 °C; that for `COc1ncc(S(C)(=O)=O)cc1Br` was 148 to 150 °C; that for `CCOCc1nc2c(N)nc3cc(-c4cncc(CO)c4)ccc3c2n1CC(C)C` was 211 to 212 °C.
The same measure for `CN1C(=O)CC(c2c[nH]c3ccc(Br)cc23)C1=O` (stereo unspecified): 194 to 195 °C; for `Cc1cc(-c2cc3cc(OCCNC[C@H](O)c4cccc(C(F)(F)F)c4)ccc3o2)no1`: 126 to 127 °C; for `COC(=O)CCc1cnoc1-c1ccc(F)cc1F`: 40 to 41 °C.
For `Clc1ncnc2c1ncn2-n1cccc1`, the melting point lay in the range of 204 to 206 °C.
For `NC(=O)CCc1ccnc(-c2nc(=O)c3ccccc3s2)c1`, the melting point lay in the range of 237 to 240 °C.
The value for `CCCCC(=Nc1sccc1C(=O)NCCC)OC` was 68 to 70 °C.
The same measure for `N#CNC=Nc1ccc(-c2c[nH]cn2)cc1`: 234 to 235 °C; for `O=C(c1cccs1)C1CCN(CCc2ccccc2)CC1`: 77 to 79 °C; for `C=C1SC(=S)N(c2ccc3cc(-c4ccc(OC)c(-c5ccccc5)c4)ccc3c2)C1=O`: 266 to 269 °C.
Turning to `O=C1Cc2cc(NC(=O)C(=O)N3CCC(CCc4ccccc4)CC3)ccc2N1`, the melting point lay within 236 to 240 °C.
`Oc1ccc(Cc2ccc(OCC(O)CCc3cccnc3)cc2)cc1` (stereo unspecified) gave a melting point of 98 to 99 °C.
`CCC(C)(C)C1=CC(=CC(=O)O)C=C(C(C)(C)CC)C1=O` returned a melting point of 109 to 110 °C.
As to `COc1ccc(-c2nc(S(=O)(=O)c3ccc(C)cc3)n(Cc3ccccc3)c2-c2ccc(OC)cc2)cc1`, the melting point lay within 154 to 156 °C.
Molecule `CCOC(=O)c1c(O)c2cccc3c2n(c1=O)CCO3` displayed a melting point of 160 to 164 °C.
Molecule `ClCCOc1ccc(/C=C/c2nc3ccccc3s2)cc1` had a melting point of 92 to 94 °C.
The value for `CCCCCNCCC1CCCC1CCCCCCC(=O)O` (stereo unspecified) was 107 to 108 °C; that for `Cc1c(O)cccc1Br` was 89 °C; that for `CCCc1nc(C(C)(C)O)c(C(=O)OCOC(=O)C(C)(C)C)n1Cc1ccc(-c2ccccc2C(=O)O)cc1` was 170 to 173 °C.
The same measure for `CC(C(=O)O)(c1ccc(OCc2ccc3ccccc3n2)cc1)c1ccc(OCc2ccc3ccccc3n2)cc1`: 208 to 210 °C; for `Oc1ccc(-c2cnccn2)cc1`: 216 to 217 °C.
In the case of `COCN1C(C)=C(C(=O)O)C(c2ccccc2C(F)(F)F)C(C(=O)O)=C1C`, the melting point fell in the range of 172 to 173 °C.
The value for `CCOC(=O)c1cc(O)cc(O)c1` was 128 to 130 °C; that for `CCc1ccc(NC(=O)NCC2(c3ccccc3)CCCCC2)cc1` was 138 to 139 °C; that for `COc1ccc(-c2nc(C(=O)NC3CCN(Cc4ccccc4)CC3)sc2-c2ccc(OC)cc2)cc1` was 130 to 131 °C.
The same measure for `CCCP(=O)(CCC)Cc1ccc(NC(=O)/C=C/c2cccc(-c3ccc(C)cc3)c2)cc1`: 225 to 227 °C; for `Cc1c(NC(=O)C(CSC(=O)c2ccco2)Cc2ccccc2)cccc1C(=O)O` (stereo unspecified): 113 to 116 °C; for `Cc1cccc(C2=CCN(CCCCCC(=O)N3Cc4ccccc4C3)CC2)c1C#N`: 71 °C.
The value for `OC(CN1CCC(c2noc3cc(F)ccc23)CC1)CN1CCCc2ccccc21` (stereo unspecified) was 170 to 171 °C.
Molecule `CC(=O)Oc1c2c(c3ccccc3c1OC(C)=O)Nc1ccccc1S2` came in with a melting point of 206 to 207 °C.
The value for `CCOC(=O)C1CN(C(=O)c2cc(OC)c(OC)c(OC)c2)CCN1C(=O)c1cc(OC)c(OC)c(OC)c1` (stereo unspecified) was 130 °C; that for `CCOC(=O)Cn1ncc2c(Br)c(OC)ccc21` was 106 to 107 °C; that for `C=C(C)C(=O)c1nc(S(=O)C(C)C)n(-c2ccc(CC)cc2)c1Cl` (stereo unspecified) was 83 to 84 °C.
The value for `CN1C(=O)COc2ccc(C3=NNC(=O)CC3)cc21` was 247 to 248 °C; that for `O=C(O)C=Cc1cccc2nnsc12` was 199 to 202 °C; that for `CCCCc1cc(C#N)ncc1C(=O)O` was 267 to 268 °C.
The value for `CC1(O)CC(=O)OC(CCc2ccc(OCc3ccc(F)cc3)cc2)C1` (stereo unspecified) was 144 °C; that for `N#CC(=Cc1ccc(CBr)cc1)c1ccccc1` was 61 °C.
`CCC(C)CC(=O)OC1COC(OC(=O)CC(C)CC)CO1` (stereo unspecified): the melting point was in the range of 71 to 72 °C.
The same measure for `COc1ccccc1OCCCc1oc(N2CCOCC2)nc1-c1ccc(Cl)cc1`: 81 to 82 °C; for `CC(C)CNc1nc(-c2ccccc2)c(Cl)n2c(-c3ccc(C(=O)NC4CC4)cc3)cnc12`: 180 °C.
The molecule `COC1=C(C(=O)c2ccc(Cl)cc2Cl)C(=O)CCC1` returned a melting point of 81 to 86 °C.
The same measure for `CCCc1nc2c(N)nc3ccccc3c2o1`: 159 to 160 °C; for `CCOC(=O)N1CCC(Nc2nc3cncnc3n2Cc2ccccc2)CC1`: 157 °C; for `O=C1N(C(c2ccccc2)c2ccccc2)c2ccccc2C12COc1cc3c(cc12)OCCCO3` (stereo unspecified): 165 to 168 °C.
`CCOc1ccc2c3c([nH]c2c1)CC(NC(C)=O)CC3` (stereo unspecified): the melting point is 184 to 186 °C.
`CN1C(=O)C=C(c2cccc(Cl)c2)C1=O` yielded a melting point of 111 to 113 °C.
The value for `Cc1c(O)cc2c(c1C)N(C=O)CC2` was 192 to 193 °C; that for `Cc1cccc(Cl)c1CCCOc1oc(-n2ccnc2C)nc1-c1ccc(Cl)cc1` was 115 to 116 °C.
The same measure for `CCc1nc(NC(=S)NCCc2ccccc2Oc2ccccc2)cs1`: 168 °C.
`CNC(=S)C1(c2cnc3ccccc3c2)CCCS1` (stereo unspecified) showed a melting point of 159 °C.
The value for `CON=C(C(=O)OC)c1ccccc1-c1nnc(-c2cccc(C)c2)o1` was 166 to 167 °C; that for `C[C@@H]1S[C@@H](C(=O)Nc2ccc(CC3OC(=O)NC3=O)cc2)Cc2cc3c(cc2C1=O)OCO3` (stereo partly specified) was 164 to 166 °C; that for `CCCCCCCCCC(N)CCCCCCCCC(N)CCCCCCCCC` (stereo unspecified) was 33 to 37 °C.
The same measure for `CC(C)(c1ccccc1)c1ccc(OCC(=O)O)c(C(C)(C)c2ccccc2)c1`: 114 °C; for `N#Cc1ccc(-c2nc(=O)c3ccccc3s2)cc1`: 241 °C; for `O=C1C(c2cccc(Br)c2)n2cncc2CN1Cc1cccnc1` (stereo unspecified): 50 to 54 °C.
The value for `Nc1nc2c(ncn2COCCO)c(=S)[nH]1` was 251 to 254 °C; that for `CCOC(=O)C1=Cc2cc(-c3ccc(C(F)(F)F)cc3)ccc2OCC1` was 107 to 110 °C; that for `CCc1nc2c(o1)C(=O)C=C(Nc1ccccc1)C2=O` was 200 °C.
`COc1cc(OC)nc(OC(C(=O)N[C@@H](C)C(=O)O)C(C)C)n1` (stereo partly specified): the melting point is 157 to 160 °C.
The same measure for `C=CCN(CC=C)c1nc(Cl)nc2c(SC)ncnc12`: 83 to 84 °C; for `O=C1CN(Cc2ccccc2)C(=S)N1`: 150 to 152 °C; for `COc1cc(C(C)C)c2c(c1)S(=O)(=O)N(CCl)C2=O`: 151 to 152 °C.
The same measure for `CC1(C)OC(c2ccc(S(C)(=O)=O)cc2)=C(c2cc3ccccc3s2)C1=O`: 204 to 206 °C; for `CCOC(=O)c1ccnc(-c2nc(=O)c3ccccc3s2)c1`: 236 to 237 °C; for `COc1ccc(S(N)(=O)=O)cc1N=Nc1c(O)c(O)c(N=Nc2cc(S(N)(=O)=O)ccc2OC)c2ccccc12`: 345 °C.
`CCn1cc(C(=O)NCc2ccc(Cl)cc2)c(=O)c2ccsc21` came in with a melting point of 183 to 184 °C.
The value for `O=C(O)Cc1ccc(O)c(Cl)c1Cl` was 105 to 106 °C.
`COc1cc(OC)cc(N(C)S(=O)(=O)c2ccc(C)cc2)c1` displayed a melting point of 110 to 111 °C.
Molecule `COc1cc2nc(S(=O)Cc3ncc(C)c(N(C)C)c3Cl)[nH]c2cc1OC` (stereo unspecified) yielded a melting point of 174 to 175 °C.
For `COc1nc2cc([N+](=O)[O-])c(C)c(C(=O)N3CCNCC3)c2nc1OC`, the melting point lay within 150 to 152 °C.
`Cc1nnc(NC(C)C)s1` registered a melting point of 145 °C.
The value for `CCCCc1nc2c(N)nc3ccc(OCc4ccccc4)cc3c2n1C` was 198 to 199 °C.
Regarding `CC(C)n1nc(-c2c(-c3ccccc3)nn3ccc(OCc4ccncc4)cc23)ccc1=O`, the melting point lay in the range of 218 to 220 °C.
The same measure for `Nc1ccc(-c2noc(-c3cnn4c(C(F)(F)F)cc(-c5ccc(C(F)(F)F)c(F)c5)nc34)n2)cn1`: 233 °C.
As for `C1CNCCSCCNCCN1`, the melting point fell in the range of 51 to 54 °C.
The value for `CC1NC(=O)NN=C1c1ccc(OCC(=O)NCCN2CCNCC2)c(Cl)c1` (stereo unspecified) was 208 to 210 °C.
As to `Cc1cccc(C2SC3(CCN(C(=O)Oc4ccccc4)CC3)c3ccccc32)c1` (stereo unspecified), the melting point lay within 154 to 157 °C.
The value for `CCOC(=O)Cc1csc(NC(=O)c2sc3ccc(OC)cc3c2OC(C)C)n1` was 91 to 92 °C; that for `O=C(O)c1ccc(CO/N=C/c2cn(Cc3ccccc3)c3ccccc23)cc1Br` was 107 to 109 °C.
The same measure for `N#Cc1ccc(CC(NC(=O)OCc2ccccc2)C(=O)NCC(=O)NCCC(=O)OCc2ccccc2)cc1` (racemic): 134 to 135 °C.
`CC(=O)OCC(COC(C)=O)(NC(=O)OC(C)(C)C)C(=O)c1ccccc1`: the melting point was 112 to 113 °C.
The same measure for `NC(=O)c1ccc(NC2CCOCC2)cc1`: 208 to 210 °C; for `CC(C)C(NC(=O)NCc1ccccc1)C(=O)NC(Cc1ccccc1)C(O)C(Cc1ccccc1)NC(=O)C(NC(=O)NCc1ccccc1)C(C)C` (stereo unspecified): 238 °C.
For `CCOC(=O)CCn1c(-c2ccc(Cl)cc2)nc2cccnc21`, the melting point lay within 57 to 59 °C.
With `c1ccc(C(CCOc2ccc(-c3nnn[nH]3)cc2)(c2ccccc2)c2ccccc2)cc1`, the melting point was 232 to 233 °C.
The same measure for `Nc1ncccc1-c1nc2cccnc2n1-c1ccc(CNC(=O)c2ccccc2)cc1`: 226 to 228 °C.
